The values that follow come from patent US11712438B2, “Phenyl derivatives as PGE2 receptor modulators” (IDORSIA PHARMACEUTICALS LTD, priority 2017, dated 2023).

Holding throughout (assay): cell-based
The target of experiment [1] is PTGER2 (EP2) (Homo sapiens, UniProt P43116).
Source text: The assay is using the PathHunter™ HEK 293 PTGER2 and PTGER4 b-arrestin cell lines from DiscoverX. The system is based on the Enzyme Fragment Complementation Technology. Two complementing fragments of the b-galactosidase enzyme are expressed within stably transfected cells. The larger portion of b-gal, termed EA for Enzyme Acceptor, is fused to the C-terminus of b-arrestin 2. The smaller fragment, termed ProLink™ tag, is fused to PTGER2 (EP2) or PTRGER4 (EP4) at the C-terminus. Upon activation, b-arrestin is recruited which forces the interaction of ProLink and EA, allowing complementation of the two fragments of b-gal and the formation of a functional enzyme which is capable of hydrolysing the substrate and generating a chemiluminescent signal.
The HEK 293 PTGER2 b-arrestin cells (DiscoverX 93-021-4C1) are detached from culture dishes with a cell dissociation buffer (Invitrogen, 13151-014), and collected in growing medium (GM: DMEM+Glutamax-I (Invitrogen 32430)/10% FCS, 1% Penicilin/streptomycin). 5000 cells per well of a 384 well plate (white with white bottom Greiner 781080) are seeded in 20 ul per well of GM. Plate is incubated at 37° C., 5% CO2 for 24 hours.
Stock solutions of test compounds are made at a concentration of 10 mM in DMSO, and serially diluted in DMSO to concentrations required for inhibition dose response curves (tested concentration range 10 μM-2 nM or 1 μM-0.2 nM).
PGE2 (Cayman 14010, stock solution: 10 mM in DMSO) is used as agonist at 5 μM final concentration, corresponding to EC80.
Five microliters of diluted compounds are transferred into the assay plate. Plate is pre-incubated 15 minutes at 37° C. Then five microliters of PGE2 (final conc. 5 μM) are transferred into the assay plate. Plate is incubated 120 minutes at 37° C.
Twelve μl of reagent are transferred to the assay plate and incubate for 1 hour at room temperature in the dark. Luminescence counts are read on a BMG Fluostar Optima reader according to manufacturer's instructions.
For each compound concentration calculate of the percentage of activity compared to DMSO control value as average±STDEV. (each concentration is measured in duplicate)
When compounds were measured multiple times, mean values are given.
For experiment [2], the target named is PTRGER4 (EP4) (Homo sapiens, UniProt P35408).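 Further: assay plate preincubated 15 min at 37 °C, after which PGE2 was added at 20 nM final and incubation continued 120 min at 37 °C.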
Experiment [3] concerns the target EP2 (Homo sapiens, UniProt P43116).
In experiment [4] the target is EP4 (Homo sapiens, UniProt P35408).
EP4, sequence (P35408 whole entry): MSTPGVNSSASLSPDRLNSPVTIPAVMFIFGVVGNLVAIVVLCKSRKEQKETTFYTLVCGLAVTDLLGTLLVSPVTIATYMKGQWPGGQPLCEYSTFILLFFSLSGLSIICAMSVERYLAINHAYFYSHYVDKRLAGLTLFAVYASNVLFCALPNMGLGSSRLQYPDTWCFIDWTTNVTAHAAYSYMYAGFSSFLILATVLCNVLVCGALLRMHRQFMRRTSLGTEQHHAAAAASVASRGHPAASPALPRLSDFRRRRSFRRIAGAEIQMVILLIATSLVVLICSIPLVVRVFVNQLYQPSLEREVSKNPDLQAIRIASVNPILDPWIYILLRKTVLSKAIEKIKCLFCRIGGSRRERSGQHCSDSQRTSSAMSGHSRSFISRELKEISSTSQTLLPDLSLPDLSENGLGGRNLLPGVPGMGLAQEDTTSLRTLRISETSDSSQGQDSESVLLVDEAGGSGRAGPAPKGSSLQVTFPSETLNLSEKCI

PTRGER4 (EP4), sequence (P35408 whole entry): as above
EP2, sequence (P43116 whole entry): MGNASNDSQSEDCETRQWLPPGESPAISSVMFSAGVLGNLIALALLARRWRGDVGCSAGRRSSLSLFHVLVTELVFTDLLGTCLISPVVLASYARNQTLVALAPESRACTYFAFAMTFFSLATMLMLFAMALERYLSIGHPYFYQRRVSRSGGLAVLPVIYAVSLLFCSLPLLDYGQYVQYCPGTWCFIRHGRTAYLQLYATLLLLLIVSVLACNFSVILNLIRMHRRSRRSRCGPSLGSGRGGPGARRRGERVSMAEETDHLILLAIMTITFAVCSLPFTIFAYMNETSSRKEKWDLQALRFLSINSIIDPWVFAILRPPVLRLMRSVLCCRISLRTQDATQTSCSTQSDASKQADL
PTGER2 (EP2), sequence (P43116 whole entry): as above

For orientation: IC50 means the concentration needed to halve the response being measured. A higher IC50 goes with a need for much substance. With `CCOc1cc(-c2cc(NCCc3ccc(Br)cc3)ncn2)ccc1C(=O)O` [Example 11, 4-{6-[2-(4-Bromo-phenyl)-ethylamino]-pyrimidin-4-yl}-2-ethoxy-benzoic acid], the IC50 turned out to be 358 nM in experiment [1], 1090 nM in experiment [2], 311 nM in experiment [3] and 440 nM in experiment [4].

With `CCOc1nc(-c2cc(NCCc3c(F)cc(Br)cc3F)ncn2)sc1-c1noc(=O)[nH]1` [Example 150, 3-(2-{6-[2-(4-Bromo-2,6-difluoro-phenyl)-ethylamino]-pyrimidin-4-yl}-4-ethoxy-thiazol-5-yl)-[1,2,4]oxadiazol-5(4H)-one], the IC50 in experiment [1] was 13 nM; in experiment [2], 2 nM; in experiment [3], 15 nM; in experiment [4], 9 nM.

Turning to `CCOc1cc(-c2cc(NCCc3ccc(Cl)cc3)ncn2)sc1C(=O)O` [Example 82, 5-{6-[2-(4-Chloro-phenyl)-ethylamino]-pyrimidin-4-yl}-3-ethoxy-thiophene-2-carboxylic acid], the IC50 in experiment [1] is 74 nM; in experiment [2], 103 nM; in experiment [3] it was 66 nM; in experiment [4], 46 nM.

For `CCOc1cc(-c2cc(NCCc3ccc(Cl)cc3[N+](=O)[O-])ncn2)sc1C(=O)O` [Example 65, 5-{6-[2-(4-Chloro-2-nitro-phenyl)-ethylamino]-pyrimidin-4-yl}-3-ethoxy-thiophene-2-carboxylic acid], the IC50 in experiment [1] is 111 nM; in experiment [2], 136 nM; in experiment [3], 102 nM; in experiment [4], 53 nM.

As to `CCOc1cc(-c2cc(NCCc3c(F)cc(Br)cc3F)ncn2)sc1CCC(=O)O` [Example 44, 3-(5-{6-[2-(4-Bromo-2,6-difluoro-phenyl)-ethylamino]-pyrimidin-4-yl}-3-ethoxy-thiophen-2yl)-propionic acid], the IC50 in experiment [1] was determined as 44 nM; in experiment [2], 62 nM; in experiment [3], 120 nM; in experiment [4] it was 38 nM.

On to `CCOc1cc(-c2cc(NCCc3ccc(OC(F)(F)F)cc3OC)ncn2)sc1C(=O)O` [Example 210, 3-Ethoxy-5-{6-[2-(2-methoxy-4-trifluoromethoxy-phenyl)-ethylamino]-pyrimidin-4-yl}-thiophene-2-carboxylic acid], for which the IC50 in experiment [1] came to 294 nM; in experiment [2], 20 nM; in experiment [3] it was 615 nM; in experiment [4], 21 nM.

In the case of `COc1cc(-c2cc(NCCc3c(F)cc(Br)cc3F)ncn2)ccc1-c1cc(O)no1` [Example 174, 5-(4-{6-[2-(4-Bromo-2,6-difluoro-phenyl)-ethylamino]-pyrimidin-4-yl}-2-methoxy-phenyl)-isoxazol-3-ol], the IC50 turned out to be 36 nM in experiment [1], 108 nM in experiment [2], 265 nM in experiment [3] and 94 nM in experiment [4].

`COc1cc(C(F)F)c(F)cc1CCNc1cc(-c2ccc(C(=O)O)c(OC3CCC3)c2)ncn1` [Example 184, 2-Cyclobutoxy-4-{6-[2-(4-difluoromethyl-5-fluoro-2-methoxy-phenyl)-ethylamino]pyrimidin-4-yl}-benzoic acid]: the IC50 worked out at 127 nM in experiment [1], 140 nM in experiment [2], 630 nM in experiment [3] and 250 nM in experiment [4].

With `CCOc1cc(-c2cc(NCCc3c(C)cc(C)cc3OC)ncn2)sc1C(=O)O` [Example 203, 3-Ethoxy-5-{6-[2-(2-methoxy-4,6-dimethyl-phenyl)-ethylamino]-pyrimidin-4-yl}-thiophene-2-carboxylic acid], the IC50 in experiment [1] turned out to be 81 nM; in experiment [2], 92 nM; in experiment [3], 27 nM; in experiment [4], 11 nM.

As to `CCOc1cc(-c2cc(NCCc3c(F)cc(Br)cc3F)ncn2)sc1-c1noc(=O)[nH]1` [Example 110, 3-(5-{6-[2-(4-Bromo-2,6-difluoro-phenyl)-ethylamino]-pyrimidin-4-yl}-3-ethoxy-thiophen-2yl)-[1,2,4]oxadiazol-5(4H)-one], the IC50 worked out at 6 nM in experiment [1], 2 nM in experiment [2], 9 nM in experiment [3] and 3 nM in experiment [4].

Turning to `O=C(O)Cc1ccc(-c2cc(NCCc3c(F)cc(Br)cc3F)ncn2)cc1OC(F)F` [Example 252, (4-{6-[2-(4-Bromo-2,6-difluoro-phenyl)-ethylamino]-pyrimidin-4-yl}-2-difluoromethoxy-phenyl)-acetic acid], the IC50 in experiment [1] amounted to 214 nM; in experiment [2], 484 nM; in experiment [3], 1910 nM; in experiment [4] it was 959 nM.

In the case of `CC(C)Oc1cc(-c2cc(NCCc3c(F)cc(Br)cc3F)ncn2)sc1-c1noc(=O)[nH]1` [Example 162, 3-(5-{6-[2-(4-Bromo-2,6-difluoro-phenyl)-ethylamino]-pyrimidin-4-yl}-3-isopropoxy-thiophen-2-yl)-[1,2,4]oxadiazol-5(4H)-one], the IC50 turned out to be 20 nM in experiment [1], 2 nM in experiment [2], 46 nM in experiment [3] and 5 nM in experiment [4].

Turning to `CCOc1cc(-c2cc(NCCc3ccc(Br)cc3C)ncn2)sc1-c1noc(=O)[nH]1` [Example 127, 3-(5-{6-[2-(4-Bromo-2-methyl-phenyl)-ethylamino]-pyrimidin-4-yl}-3-ethoxy-thiophen-2-yl)-[1,2,4]oxadiazol-5(4H)-one], the IC50 in experiment [1] was 29 nM; in experiment [2], 14 nM; in experiment [3], 129 nM; in experiment [4] it was 47 nM.

`CCOc1cc(-c2cc(NCCc3ccc(OC)c(O)c3)ncn2)sc1-c1noc(=O)[nH]1` [Example 117, 3-(3-Ethoxy-5-{6-[2-(3-hydroxy-4-methoxy-phenyl)-ethylamino]-pyrimidin-4-yl}-thiophen-2yl)-[1,2,4]oxadiazol-5(4H)-one]: the IC50 in experiment [1] turned out to be 692 nM; in experiment [2] it was 16 nM; in experiment [3], 244 nM; in experiment [4], 26 nM.

In the case of `CCOc1cc(-c2cc(NCCc3c(F)cccc3F)ncn2)sc1-c1noc(=O)[nH]1` [Example 103, 3-(5-{6-[2-(2,6-Difluoro-phenyl)-ethylamino]-pyrimidin-4-yl}-3-ethoxy-thiophen-2-yl)-[1,2,4]oxadiazol-5(4H)-one], the IC50 in experiment [1] came to 62 nM; in experiment [2] it was 36 nM; in experiment [3], 39 nM; in experiment [4], 39 nM.

For `CCOc1cc(-c2cc(NCCc3ccc(Br)cc3OC)ncn2)ccc1C(=O)O` [Example 50, 4-{6-[2-(4-Bromo-2-methoxy-phenyl)-ethylamino]-pyrimidin-4-yl}-2-ethoxy-benzoic acid], the IC50 in experiment [1] was determined as 264 nM; in experiment [2], 1310 nM; in experiment [3], 259 nM; in experiment [4], 910 nM.

With `CCOc1cc(-c2cc(NCCc3ccc(Cl)c(Cl)c3)ncn2)sc1-c1noc(=O)[nH]1` [Example 121, 3-(5-{6-[2-(3,4-Dichloro-phenyl)-ethylamino]-pyrimidin-4-yl}-3-ethoxy-thiophen-2-yl)-[1,2,4]oxadiazol-5(4H)-one], the IC50 in experiment [1] was 66 nM; in experiment [2], 9 nM; in experiment [3], 60 nM; in experiment [4], 42 nM.

For `O=c1[nH]c(-c2sc(-c3cc(NCCc4c(F)cc(Br)cc4F)ncn3)cc2C(F)(F)F)no1` [Example 133, 3-(5-{6-[2-(4-Bromo-2,6-difluoro-phenyl)-ethylamino]-pyrimidin-4-yl}-3-trifluoromethyl-thiophen-2-yl)-[1,2,4]oxadiazol-5(4H)-one], the IC50 is 13 nM in experiment [1], 13 nM in experiment [2], 92 nM in experiment [3] and 44 nM in experiment [4].

For `CCOc1cc(Br)ccc1CCNc1cc(-c2cc(OCC)c(-c3noc(=O)[nH]3)s2)ncn1` [Example 85, 3-(5-{6-[2-(4-Bromo-2-ethoxy-phenyl)-ethylamino]-pyrimidin-4-yl}-3-ethoxy-thiophen-2-yl)-[1,2,4]oxadiazol-5(4H)-one], the IC50 in experiment [1] came out at 8 nM; in experiment [2], 6 nM; in experiment [3] it was 7 nM; in experiment [4], 12 nM.

Turning to `CCOc1cc(-c2cc(NCCc3ccccc3)ncn2)sc1C(=O)O` [Example 75, 3-Ethoxy-5-(6-phenethylamino-pyrimidin-4-yl)-thiophene-2-carboxylic acid], the IC50 turned out to be 727 nM in experiment [1], 2180 nM in experiment [2], 568 nM in experiment [3] and 918 nM in experiment [4].

As to `CCOc1cc(-c2cc(NCCc3ccc(Br)cc3)ncn2)sc1CC(=O)O` [Example 17, (5-{6-[2-(4-Bromo-phenyl)-ethylamino]-pyrimidin-4-yl}-3-ethoxy-thiophen-2-yl)-acetic acid], the IC50 was 202 nM in experiment [1], 147 nM in experiment [2], 189 nM in experiment [3] and 293 nM in experiment [4].

For `CCOc1cc(-c2cc(NCCc3ccc(C)c(C)c3)ncn2)sc1C(=O)O` [Example 68, 5-{6-[2-(3,4-Dimethyl-phenyl)-ethylamino]-pyrimidin-4-yl}-3-ethoxy-thiophene-2-carboxylic acid], the IC50 in experiment [1] came out at 145 nM; in experiment [2], 33 nM; in experiment [3], 165 nM; in experiment [4], 25 nM.

As to `O=C(O)c1ccc2cc(-c3cc(NCCc4c(F)cc(Br)cc4F)ncn3)[nH]c2c1` [Example 169, 2-{6-[2-(4-Bromo-2,6-difluoro-phenyl)-ethylamino]-pyrimidin-4-yl}-1H-indole-6-carboxylic acid], the IC50 in experiment [1] is 21 nM; in experiment [2], 457 nM; in experiment [3], 74 nM; in experiment [4], 1380 nM.

For the compound `CCOc1cc(-c2cc(NCCc3c(F)cc(Br)cc3F)ncn2)sc1-c1nnc(O)o1` [Example 152, 5-(5-{6-[2-(4-bromo-2,6-difluoro-phenyl)-ethylamino]-pyrimidin-4-yl}-3-ethoxy-thiophen-2-yl)-[1,3,4]-oxadiazol-2-ol], the IC50 in experiment [1] was determined as 12 nM; in experiment [2], 5 nM; in experiment [3], 9 nM; in experiment [4] it was 30 nM.
